Assay results as given in PubChem BioAssay AID463203 (Broad Institute, 2010).
The source made the active and inactive calls.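 Rule for the calls: active = more than half of replicate measurements showing over 20% loss of kinase signal relative to plate controls; inconclusive = some but at most half of replicates over 20% loss; inactive = no replicate over 20% signal loss.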

Molecular target: Glycogen synthase kinase-3 alpha (Homo sapiens) (UniProt P49840)
Assay: concentration-response blocking of human GSK3A – biochemical, luminescence, cell-free homogeneous, retest, dose response (AID 463203)
Conditions: GSK-3 alpha enzyme, ADP-Glo luminescence, 60 min

Chain of Glycogen synthase kinase-3 alpha (Homo sapiens) (P49840 whole entry, looked up): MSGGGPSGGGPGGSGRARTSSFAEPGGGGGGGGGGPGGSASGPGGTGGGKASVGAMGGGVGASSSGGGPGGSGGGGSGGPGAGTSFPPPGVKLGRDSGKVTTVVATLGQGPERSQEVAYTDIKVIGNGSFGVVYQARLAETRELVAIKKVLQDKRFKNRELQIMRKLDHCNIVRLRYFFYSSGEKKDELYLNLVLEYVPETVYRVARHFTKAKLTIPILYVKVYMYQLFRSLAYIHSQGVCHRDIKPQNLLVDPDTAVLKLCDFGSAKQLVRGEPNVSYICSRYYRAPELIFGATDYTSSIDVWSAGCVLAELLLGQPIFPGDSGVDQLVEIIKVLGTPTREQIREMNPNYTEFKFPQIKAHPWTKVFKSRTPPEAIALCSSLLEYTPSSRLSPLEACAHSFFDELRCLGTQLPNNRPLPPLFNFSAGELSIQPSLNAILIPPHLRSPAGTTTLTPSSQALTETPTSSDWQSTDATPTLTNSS

Q: `O=C(O)c1ccc(Cl)c(NC(=O)C2CCCN2S(=O)(=O)c2cccc3nsnc23)c1` (stereo not drawn) was tested. Which AC50 did it give?
A: 19.1 µM

Q: `O=C(N/N=C/c1ccccn1)c1cccc(NC(=O)c2ccccc2Cl)c1` was tested. Which AC50 did it give?
A: 15.9 µM

Q: For `COc1ccc(CCn2cnc(=O)c(C#N)c2C)cc1OC`, which AC50 is on record?
A: > 30 µM (inactive)

Q: For `CCOc1cccc(-c2c(C(=O)N/N=C/c3ccco3)nnn2-c2nonc2N)c1`, which AC50 is on record?
A: 10.5 µM

Q: For `Cc1sc2ncnc(SCC(=O)NCC3CCCO3)c2c1C` (stereo not drawn), which AC50 is on record?
A: > 30 µM (inactive)

Q: With `COc1ccc(OCc2nc(N)nc(Nc3cccc(C)c3C)n2)cc1` as the compound, how does the AC50 read?
A: > 30 µM (inactive)

Q: `CN(C)/C=C/c1[nH]c(=O)[nH]c(=O)c1[N+](=O)[O-]` was tested. Which AC50 did it give?
A: > 30 µM (inactive)

Q: Which AC50 does the source give for `O=C(NCCCn1ccnc1)C(Cl)(Cl)Cl` here?
A: > 30 µM (inactive)

Q: Which AC50 does the source give for `Cc1[nH]nc2c1C(c1ccsc1)C1=C(CC(C)(C)CC1=O)N2` (stereo not drawn) here?
A: 1.06 µM

Q: `Cc1ccc(-c2nc3n(n2)Cc2ccccc2-3)cc1` was tested. Which AC50 did it give?
A: > 30 µM (inactive)

Q: How did the AC50 turn out when `COc1ccc(Br)cc1C(=O)Nc1ccc(NC(=O)c2ccco2)cc1` was run?
A: > 30 µM (inactive)

Q: For `CN(Cc1nc2c(s1)CCCC2)C(=O)CCc1nnc(-c2ccccc2)o1`, which AC50 is on record?
A: > 30 µM (inactive)

Q: How did the AC50 turn out when `COc1ccc(-c2cc(C(F)(F)F)nc(SCC(=O)NCc3ccco3)n2)cc1OC` was run?
A: > 30 µM (inactive)

Q: Which AC50 does the source give for `CC1(C)Cc2c(sc3nn[nH]c(=O)c23)CO1` here?
A: > 30 µM (inactive)

Q: With `N#Cc1c(Nc2ccccc2)c(C=O)c[nH]c1=O` as the compound, how does the AC50 read?
A: > 30 µM (inactive)

Q: How did the AC50 turn out when `CC(C)Nc1nc(NC(C)C)nc(C(=O)OCCO)n1` was run?
A: > 30 µM (inactive)

Q: `Cc1ccc(NC(=O)CSCc2ccco2)cc1` was tested. Which AC50 did it give?
A: > 30 µM (inactive)

Q: Which AC50 does the source give for `Cc1ccc(S(=O)(=O)Nc2ccc(O)c3cccnc23)cc1` here?
A: > 30 µM (inactive)

Q: Which AC50 does the source give for `CCn1c(C)nc2cc(-c3nc4n(n3)Cc3ccccc3-4)ccc21` here?
A: 16.1 µM

Q: With `COc1cc(/C=C2\Oc3ccc(C#Cc4ccc(O)cc4)cc3C2=O)cc(OC)c1` as the compound, how does the AC50 read?
A: > 30 µM (inactive)

Q: With `Cc1cc(C)n(CCC(=O)N=Nc2c(O)[nH]c3ccc(Br)cc23)n1` as the compound, how does the AC50 read?
A: 11.5 µM

Q: For `Cc1cc(O)c(Oc2cc(C)cc(O)c2O)c(O)c1`, which AC50 is on record?
A: > 30 µM (inactive)

Q: For `COc1cccc(-c2[nH]nc3c2C(c2ccc(C)o2)C(C#N)=C(N)O3)c1` (stereo not drawn), which AC50 is on record?
A: > 30 µM (inactive)

Q: For `Cc1cc(NC(=O)CCSc2nc(-c3ccco3)cc(C(F)(F)F)n2)n(-c2ccccc2)n1`, which AC50 is on record?
A: > 30 µM (inactive)

Q: For `CCSC1(SCC)N=C(N)C2(C#N)C(c3ccc(F)cc3)C12C#N` (stereo not drawn), which AC50 is on record?
A: > 30 µM (inactive)

Q: `CCOC(=O)c1c(C)c[nH]c1C` was tested. Which AC50 did it give?
A: > 30 µM (inactive)

Q: Which AC50 does the source give for `CCN(CC)Cc1c(C(=O)N/N=C(\C)c2ccncc2)nnn1-c1nonc1N` here?
A: 9.96 µM

Q: Which AC50 does the source give for `Cc1[nH]c2ccccc2c1N=Nc1cccc(C(=O)O)c1` here?
A: > 30 µM (inactive)

Q: For `Nc1c(C(=O)O)ccc2c1C(=O)c1ccccc1C2=O`, which AC50 is on record?
A: 7.87 µM

Q: `O=C(Nc1cccnc1)c1scc2c1OCCO2` was tested. Which AC50 did it give?
A: 23.5 µM

Q: With `O=C(Nc1nnc(-c2ccco2)s1)C1CCCCC1` as the compound, how does the AC50 read?
A: > 30 µM (inactive)

Q: `COc1ccc(CC(=S)N2CCOCC2)cc1OC` was tested. Which AC50 did it give?
A: > 30 µM (inactive)

Q: Which AC50 does the source give for `COc1ccc(N=c2oc3c(OC)cccc3cc2C(=O)NCc2ccco2)c(OC)c1` here?
A: > 30 µM (inactive)

Q: How did the AC50 turn out when `O=c1[nH]c2c(s1)C(c1ccc(O)cc1)C1C3CCC(C3)C1S2` (stereo not drawn) was run?
A: 0.649 µM

Q: Which AC50 does the source give for `COC(=O)/C=C1/S/C(=N/NC(=O)c2ccccc2OC)NC1=O` here?
A: > 30 µM (inactive)

Q: How did the AC50 turn out when `CCOC(=O)c1sc(NC(=O)CSc2ncn[nH]2)c(C#N)c1C` was run?
A: > 30 µM (inactive)

Q: `CC(C)C(=O)Nc1cccc2nsnc12` was tested. Which AC50 did it give?
A: > 30 µM (inactive)

Q: How did the AC50 turn out when `Fc1ccc(C2=Nn3c(nnc3-c3ccco3)SC2)cc1` was run?
A: > 30 µM (inactive)

Q: `O=C1c2ccccc2-c2onc3ccc(NCc4ccco4)c1c23` was tested. Which AC50 did it give?
A: > 30 µM (inactive)

Q: How did the AC50 turn out when `COC(=O)CCCNc1ncccc1[N+](=O)[O-]` was run?
A: > 30 µM (inactive)

Q: Which AC50 does the source give for `CC(=O)Nc1ccc(NS(=O)(=O)c2cccc3nonc23)cc1` here?
A: > 30 µM (inactive)

Q: For `CCCNc1nc(Cl)nc(Nc2ccc(Cl)cc2)n1`, which AC50 is on record?
A: > 30 µM (inactive)

Q: For `COc1c(/C=C2\SC(=Nc3ccccc3Cl)NC2=O)cccc1[N+](=O)[O-]`, which AC50 is on record?
A: > 30 µM (inactive)

Q: With `CC(C)(C)C(=O)NC(=S)Nc1sc2c(c1C(N)=O)CCC2` as the compound, how does the AC50 read?
A: > 30 µM (inactive)

Q: Which AC50 does the source give for `O=P(COCCOCP(=O)(c1ccccc1)c1ccccc1)(c1ccccc1)c1ccccc1` here?
A: > 30 µM (inactive)

Q: `O=C(O)C1CCCC[C@H]1C(=O)Nc1ncc([N+](=O)[O-])s1` (stereo partly drawn) was tested. Which AC50 did it give?
A: > 30 µM (inactive)

Q: `CCOc1ccc(/C=C/C2=Cc3c(sc(NC(=O)CSc4n[nH]c(N)n4)c3C#N)C(C)(C)C2)cc1` was tested. Which AC50 did it give?
A: > 30 µM (inactive)

Q: `O=C1OCCC1Sc1nnc(-c2ccc3c(c2)OCO3)o1` (stereo not drawn) was tested. Which AC50 did it give?
A: 25.9 µM

Q: Which AC50 does the source give for `C/C(NCCCn1ccnc1)=C(\C#N)C(N)=O` here?
A: 19.2 µM

Q: How did the AC50 turn out when `COc1cc(OC)cc(C2C(C#N)=C(N)Oc3n[nH]c(-c4cccnc4)c32)c1` (stereo not drawn) was run?
A: > 30 µM (inactive)

Q: With `Nc1nc(Nc2cccc(F)c2)nc(NCc2ccco2)c1[N+](=O)[O-]` as the compound, how does the AC50 read?
A: 4.08 µM

Q: With `O=C(Nc1cccc(-c2cnc3ccccc3n2)c1)c1ccncc1` as the compound, how does the AC50 read?
A: > 30 µM (inactive)

Q: `COc1ccc(/C=C/c2nc3ccccc3n2C)cc1` was tested. Which AC50 did it give?
A: 11.4 µM
